Biological target: elastase (Sus scrofa, UniProt P00772)
Test: Elastase inhibition assay (succinyl-L-alanyl-L-alanyl-L-alanyl-p-nitroanilide hydrolysis, 410 nm)
Assay type: biochemical
Method: 300 μl (0.6 mg) of succinyl-L-alanyl-L-alanyl-L-alanyl-p-nitroanilide (the enzyme substrate), 1200 μl of buffer and varying amounts of the elastase inhibitor under testing are incubated at 37° C. for 20 minutes. The hydrolysis is measured by the spectrophotometric measurement of the release of p-nitroaniline at a wavelength of 410 nm.
The anti-aging activity of the individual molecules along with different combinations were studied and the results mentioned in Table.2

elastase, sequence (P00772 27-266): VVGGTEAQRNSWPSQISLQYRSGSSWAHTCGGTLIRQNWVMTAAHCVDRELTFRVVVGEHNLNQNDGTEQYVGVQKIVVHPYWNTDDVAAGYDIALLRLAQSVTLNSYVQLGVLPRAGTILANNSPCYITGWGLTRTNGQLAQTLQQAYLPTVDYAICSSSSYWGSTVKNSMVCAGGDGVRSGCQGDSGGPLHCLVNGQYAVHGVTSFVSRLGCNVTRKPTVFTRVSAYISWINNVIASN

For `O=C(OC[C@H]1O[C@@H](OC(=O)c2cc(O)c(O)c(O)c2)[C@H](OC(=O)c2cc(O)c(O)c(O)c2)[C@@H](OC(=O)c2cc(O)c(O)c(O)c2)[C@@H]1OC(=O)c1cc(O)c(O)c(O)c1)c1cc(O)c(O)c(O)c1` [Formula 3, pentagalloyl glucose], the Inhibition (at 70 μg/ml) was 56.6% at 70 μg/ml and the “% Inhibition” value (synergistic studies, ratio Pentagalloyl glucose:Methyl gallate, concentration not given) was 49%.

— patent US20110135772A1, “SKIN CARE AGENT AND COMPOSITIONS THEREOF” (priority 2009, published 2011)
